According to patent publication US20130224730A1, “PEPTIDE LIGANDS” (ARIZONA BOARD OF REGENTS ACTING FOR AND ON BEHALF OF …, priority 2009, published 2013):

Tests used:
[1] = test system: G2.4 Minerva nVLP (norovirus-like particles, VP1 capsid protein); assay: Peptide affinity column capture and elution of nVLP from tobacco cell lysate; conditions: nVLP1 immobilized on a bead
Source text: Coupling to Support: All 6 candidate peptides were synthesized by solid-phase peptide synthesis using standard FMOC chemistry and subsequently cleaved off the resin. The candidate peptides were attached to an iodoacetyl functionalized affinity matrix at a specifically determined level. The benefits of coupling our peptides to the affinity matrix as opposed to direct synthesis onto the bead are that it allows for greater control of the levels of peptide that are immobilized. The suitability of a ligand for affinity chromatography depends on its ability to bind the target molecule specifically and reversibly with an adequate affinity. […]
To test the recovery yield of the column, cell lysate containing ˜500 μg of VP1 (as measured by SDS-PAGE) was loaded on the column and ˜470 μg of VP1 was recovered for a 94% yield. The dynamic binding capacity of the chromatography media was determined and is defined as the amount of target protein that the media binds under actual flow conditions before significant breakthrough of unbound protein occurs. […]
Briefly, a large volume of VP1 containing lysate was prepared and its absorbance at 280 nm measured. This solution was continually loaded onto the column and the flow through measured for absorbance. The point at which breakthrough occurred, defined as 10% absorbance of the lysate, was used to calculate the binding capacity. […]

G1.1 nVLP = assay: Peptide affinity column binding and elution of G1.1 nVLP produced in insect cells; parameters: species or system norovirus; conditions: eluted under same conditions as G2.4 nVLP
Source text: Noroviruses bind to histo-blood group antigens (HBGAs), which are carbohydrates that contain structurally related saccharide moieties, wherein type 1 and type 2 carbohydrate core structures constitute antigenically distinct variants. Several, but not all, noroviruses specifically bind to HBGAs, which are believed to function as receptors for docking and entry into the cell during infection. As previously mentioned, peptide nVLP1 was selected to specifically bind to G2.4 Minerva nVLPs. […] We therefore have identified at ligand that has cross reactivity to G1 and G2 capsid proteins in VLPs, with homology between genogroups I and II around 50%.

## LLYNKTFPHGRWSPSYPGSC (Peptide Ligand) [nVLP1, 20 mer peptide ligand for norovirus-like particles, optimal ligand]
[1]
  capture of nVLP from cell lysate: able to capture nVLP from cell lysate
G1.1 nVLP
  binding to G1.1 nVLP (cross reactivity G1/G2): shown to bind G1.1 nVLP
